Laboratory results taken from patent US20060263802A1 (priority 2003, published 2006).

Columns and labels:
Type in all cases: binding
[1] = system: human monoclonal antibody CRJB
[2] = system: human monoclonal antibody CRJA
[3] = system: human monoclonal antibody CRJB; remark: listed apart in the source
[4] = system: human monoclonal antibody CR57
[5] = system: human monoclonal antibody CRJA; remark: listed apart in the source
[6] = system: human monoclonal antibody CR57; remark: listed apart in the source

Row | Sequence | Binding of CRJB to linear peptide (PEPSCAN-ELISA signal) [1] | Binding of CRJA to linear peptide (PEPSCAN-ELISA signal) [2] | Binding of CRJB (10 μg/ml) to looped/cyclic peptide (PEPSCAN-ELISA) [3] | Binding of CR57 (10 μg/ml) to looped/cyclic peptide (PEPSCAN-ELISA) [4] | Binding of CRJA (10 μg/ml) to looped/cyclic peptide (PEPSCAN-ELISA) [5] | Binding of CR57 to linear peptide (PEPSCAN-ELISA signal) [6] | Binding of human monoclonal antibody CRJB to linear peptide (PEPSCAN-ELISA signal) [1] | Binding of human monoclonal antibody CRJA to linear peptide (PEPSCAN-ELISA signal) [2] | Binding of CRJB to looped/cyclic peptide (PEPSCAN-ELISA signal) [3] | Binding of CR57 to looped/cyclic peptide (PEPSCAN-ELISA signal) [4] | Binding of CRJA to looped/cyclic peptide (PEPSCAN-ELISA signal) [5] | Binding of human monoclonal antibody CR57 to linear peptide (PEPSCAN-ELISA signal) [6] | Binding of CRJB (10 μg/ml) to looped/cyclic peptide (PEPSCAN-ELISA signal) [3] | Binding of CR57 (10 μg/ml) to looped/cyclic peptide (PEPSCAN-ELISA signal) [4] | Binding of CRJA (10 μg/ml) to looped/cyclic peptide (PEPSCAN-ELISA signal) [5]
1 | KGSETCGFVDERGLY | 97 | 100 | 72 | 111 | 71 | 90 |  |  |  |  |  |  |  |  | 
2 | DGNVLIPEMQSSLLQ | 134 | 93 | 104 | 114 | 107 | 123 |  |  |  |  |  |  |  |  | 
3 | VHPLADPSTVFKDGD |  |  |  |  |  |  | 138 | 111 | 79 | 107 | 99 | 98 |  |  | 
4 | YKSLKGACKLKLCGV | 112 | 79 | 82 | 96 | 71 | 80 |  |  |  |  |  |  |  |  | 
5 | PLADPSTVFKDGDEA |  |  |  |  |  |  | 125 | 84 | 97 | 148 | 97 | 99 |  |  | 
6 | EDEGCTNLSGFSYME | 90 | 65 |  |  |  | 54 |  |  |  |  |  |  | 68 | 76 | 54
7 | RRLSHLRKLVPGFGK | 143 | 85 | 88 | 111 | 96 | 92 |  |  |  |  |  |  |  |  | 
8 | DKLGPWSPIDIHHLS | 103 | 78 |  |  |  | 62 |  |  |  |  |  |  | 70 | 104 | 89
9 | VNLHDFRSDEIEHLV | 129 | 103 | 56 | 97 | 84 | 83 |  |  |  |  |  |  |  |  | 
10 | HYKSVRTWNEILPSK | 130 | 87 | 101 | 112 | 100 | 80 |  |  |  |  |  |  |  |  | 
11 | IPEMQSSLLQQHMEL | 128 | 60 | 83 | 66 | 54 | 89 |  |  |  |  |  |  |  |  | 
12 | CGFVDERGLYKSLKG | 115 | 94 | 76 | 85 | 90 | 72 |  |  |  |  |  |  |  |  | 
